Holding throughout (format): cell-based
Assay [1] concerns PC9 cells (EGFR Exon 19 del, non-small cell lung cancer cells). Description: Cell viability assay (WST/CCK8), PC9 cells. The following applies: Homo sapiens, PC-9, PC9 (Exon19 Del), 72 hours, read-out: IC50 (half inhibitory concentration). In short, it runs like this: (§1)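 Plated 3 000 cells/well in complete RPMI1640 the day before dosing; controls were DMSO (negative) and EGFR TKIs (positive).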

Assay [2] has as its target T1, EGFR (L858R+T790M) in H1975 cells (Homo sapiens, UniProt P00533, L858R/T790M).
T1 construct: determined in H1975 cells with the EGFR L858R+T790M mutation; endogenous in cells; host or cells: H1975
Description: Western blot of EGFR protein level (degradation), H1975 cells. The note with it: 16 hours; for EGFR degradation (EGFR level, western blot): H1975 cells, 1, 10, 50, 100, 500 nM; for DC50: H1975 cells, western blot. As for the experimental part:
Cancer cells were planted in 12-well-plate at the density of 0.15 million cells per well with 1 mL RPMI1640 completed culture medium. Compounds with different concentrations (DMSO as a solution system, and 1 μL of compounds of different concentrations was added to 1 mL of the cell culture medium) were added to the cells planted one day before. 16 hours after treated, the medium was discarded and the cells were washed with precooled PBS. The cells were placed on ice and treated with RIPA protein lysis buffer containing halt protease and phosphatase inhibitor. After centrifugation at 10000 rpm at 4° C. for 10 minutes, the supernatant was collected. The same amount of proteins were added into 4×SDS loading buffer and heated at 95° C. for 5 minutes for denaturation, and the samples were stored at −20° C. after denaturation, or directly conducted protein electrophoresis. The 4-20% gradient preformed Electrophoretic gels were purchased from Kingsy. The electrophoresis tank and related components were purchased from Bio-rad company, and the electrophoresis condition was isobaric 120V for 2 hours. PVDF membrane was used for the transmembrane, and the whole transmembrane process was carried out on ice with a constant current of 0.4 amperes for an hour. The membrane was blocked with 5% skimmed milk dilution with TBST buffer. Refer to the corresponding antibody instructions for the specific steps of immunoblotting.
The degradation efficacy of the dacomitinib-based compounds on EGFR was determined in HCC827 and H1975 cell lines, which harboring EGFR Exon 19del and EGFR L858R+T790M mutations respectively.
In FIG. 2, concentration-dependent degradation assays were performed on non-small cell lung cancer cell line H1975 (T790M-mutant cell line, the most common mutation type of first-generation EGFR inhibitors). […] The DC50 of compounds SIAIS262032 and SIAIS262037 are both about 50 nM, which provides great potential for drug development to overcome drug resistance caused by EGFR T790M mutation.
The degradation efficacy of the canertinib-based compounds on EGFR was determined in H1975 cells with the EGFR L858R+T790M mutation.
The H1975 cells were treated with the PROTADs with different concentrations (1, 10, 50, 100, 500 nM) for 16 hours, and then the western blot assay was taken to estimate the EGFR levels of the cell lysates in each group. […] The DC50 of SIAIS262125 and SIAIS262182 are both less than 10 nM, much better than canertinib, which provides great potential for drug development to overcome drug resistance caused by EGFR T790M mutation.
Background: A western blot detects proteins with antibodies after separation by electrophoresis.

Assay [3] relates to HCC827 cells (EGFR Exon19 del, non-small cell lung cancer cells). Briefly: Cell viability assay (WST/CCK8), HCC827 cells. The following applies: Homo sapiens, HCC827, 72 h, HCC827 (Exon19 Del), 72 hours, read-out: IC50 (half inhibitory concentration). In a few lines:
as §1

Assay [4] concerns H1975 (EGFR T790M+L858R mutation, non-small cell lung cancer cell line). Description: Cell viability assay (WST/CCK8), H1975 cells. The following applies: Homo sapiens, NCI-H1975, H1975 (L858R + T790M), read-out: IC50 (half inhibitory concentration). In a few lines: (§2)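 Cells seeded at 3 000 per well in RPMI1640 complete medium, dosed next day with compounds at indicated concentrations (DMSO negative control, EGFR TKIs as positive control).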

Assay [5] has as its system PC9BracA1 (EGFR Exon 19 del+T790M, non-small cell lung cancer cells). Description: Cell viability assay (WST/CCK8), PC9Brac1 cells. The following applies: read-out: IC50 (half inhibitory concentration). In short, it runs like this:
as §2

Assay [6] relates to BT474 cells (HER2 positive breast cancer cells). Briefly: Cell viability assay (CCK8), BT474 cells. The note with it: for IC50: Homo sapiens, BT-474, Table 10, BT474, 72 hours, read-out: IC50 (half inhibitory concentration). In a few lines:
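HER2-overexpressing BT474 cells in RPMI1640 were exposed to compounds for 72 hours over 10 concentrations (3-fold dilution, top 10 μM). Viability was measured with CCK8 reagent against a DMSO control, and IC50 was taken from growth inhibition curves.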

Assay [7] deals with EGFR (Exon 19del) in HCC827 cells (Homo sapiens, UniProt P00533, DEL746-750). Description: Western blot of EGFR protein level (degradation), HCC827 cells. The following applies: HCC827 cells, 1, 10, 50, 100, 500 nM, 16 hours.
Description: Cancer cells were planted in 12-well-plate at the density of 0.15 million cells per well with 1 mL RPMI1640 completed culture medium. Compounds with different concentrations (DMSO as a solution system, and 1 μL of compounds of different concentrations was added to 1 mL of the cell culture medium) were added to the cells planted one day before. 16 hours after treated, the medium was discarded and the cells were washed with precooled PBS. The cells were placed on ice and treated with RIPA protein lysis buffer containing halt protease and phosphatase inhibitor. After centrifugation at 10000 rpm at 4° C. for 10 minutes, the supernatant was collected. The same amount of proteins were added into 4×SDS loading buffer and heated at 95° C. for 5 minutes for denaturation, and the samples were stored at −20° C. after denaturation, or directly conducted protein electrophoresis. The 4-20% gradient preformed Electrophoretic gels were purchased from Kingsy. The electrophoresis tank and related components were purchased from Bio-rad company, and the electrophoresis condition was isobaric 120V for 2 hours. […]
The degradation efficacy of the dacomitinib-based compounds on EGFR was determined in HCC827 and H1975 cell lines, which harboring EGFR Exon 19del and EGFR L858R+T790M mutations respectively. […]
The mark [8] stands for this setting: Table 6, canertinib-based compounds, WST.
The mark [9] stands for this setting: Table 7, canertinib-based compounds.
Setting [10] is: Table 7, canertinib-based compounds, PC9Brca1 (Ex19del + T790M).
Setting [11] is: PC9Brac1 (Ex19del + T790M), 72 hours, WST.

Each structure is given as a SMILES string. Like-named read-outs stand apart in the source and are kept apart here.

T1 sequence (P00533 25-1210 T790M/L858R): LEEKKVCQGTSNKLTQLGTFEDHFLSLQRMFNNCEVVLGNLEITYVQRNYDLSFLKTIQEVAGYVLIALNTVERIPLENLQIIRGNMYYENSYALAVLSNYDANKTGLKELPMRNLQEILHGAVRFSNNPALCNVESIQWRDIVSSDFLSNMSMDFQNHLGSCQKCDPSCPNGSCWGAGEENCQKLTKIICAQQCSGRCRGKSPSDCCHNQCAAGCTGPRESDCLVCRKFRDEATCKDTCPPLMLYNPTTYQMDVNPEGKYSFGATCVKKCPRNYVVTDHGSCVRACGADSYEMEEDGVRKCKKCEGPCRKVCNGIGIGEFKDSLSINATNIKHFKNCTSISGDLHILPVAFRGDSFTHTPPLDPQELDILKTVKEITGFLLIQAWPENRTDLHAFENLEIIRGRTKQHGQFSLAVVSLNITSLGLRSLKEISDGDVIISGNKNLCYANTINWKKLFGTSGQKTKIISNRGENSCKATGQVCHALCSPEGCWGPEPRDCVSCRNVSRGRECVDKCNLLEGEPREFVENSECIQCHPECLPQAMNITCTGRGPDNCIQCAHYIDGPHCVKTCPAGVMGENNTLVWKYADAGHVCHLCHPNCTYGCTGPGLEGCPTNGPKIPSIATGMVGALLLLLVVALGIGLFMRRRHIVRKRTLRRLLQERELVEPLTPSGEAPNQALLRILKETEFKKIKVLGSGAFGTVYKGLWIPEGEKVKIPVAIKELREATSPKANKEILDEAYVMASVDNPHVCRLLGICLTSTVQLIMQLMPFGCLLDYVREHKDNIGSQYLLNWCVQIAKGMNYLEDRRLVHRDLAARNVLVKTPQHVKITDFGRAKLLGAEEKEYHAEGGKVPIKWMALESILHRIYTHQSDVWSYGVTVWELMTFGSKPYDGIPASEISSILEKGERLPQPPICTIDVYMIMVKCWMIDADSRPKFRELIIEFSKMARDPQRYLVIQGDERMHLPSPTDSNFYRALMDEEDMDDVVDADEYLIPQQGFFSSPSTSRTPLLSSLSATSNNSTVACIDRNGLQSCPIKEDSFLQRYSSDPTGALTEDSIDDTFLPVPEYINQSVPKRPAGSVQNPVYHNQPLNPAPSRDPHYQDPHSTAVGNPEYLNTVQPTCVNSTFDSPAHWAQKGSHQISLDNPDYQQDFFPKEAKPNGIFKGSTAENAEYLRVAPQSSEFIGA
Chain of EGFR (Exon 19del) in HCC827 cells (P00533 with tags, fused parts or gaps DEL746-750): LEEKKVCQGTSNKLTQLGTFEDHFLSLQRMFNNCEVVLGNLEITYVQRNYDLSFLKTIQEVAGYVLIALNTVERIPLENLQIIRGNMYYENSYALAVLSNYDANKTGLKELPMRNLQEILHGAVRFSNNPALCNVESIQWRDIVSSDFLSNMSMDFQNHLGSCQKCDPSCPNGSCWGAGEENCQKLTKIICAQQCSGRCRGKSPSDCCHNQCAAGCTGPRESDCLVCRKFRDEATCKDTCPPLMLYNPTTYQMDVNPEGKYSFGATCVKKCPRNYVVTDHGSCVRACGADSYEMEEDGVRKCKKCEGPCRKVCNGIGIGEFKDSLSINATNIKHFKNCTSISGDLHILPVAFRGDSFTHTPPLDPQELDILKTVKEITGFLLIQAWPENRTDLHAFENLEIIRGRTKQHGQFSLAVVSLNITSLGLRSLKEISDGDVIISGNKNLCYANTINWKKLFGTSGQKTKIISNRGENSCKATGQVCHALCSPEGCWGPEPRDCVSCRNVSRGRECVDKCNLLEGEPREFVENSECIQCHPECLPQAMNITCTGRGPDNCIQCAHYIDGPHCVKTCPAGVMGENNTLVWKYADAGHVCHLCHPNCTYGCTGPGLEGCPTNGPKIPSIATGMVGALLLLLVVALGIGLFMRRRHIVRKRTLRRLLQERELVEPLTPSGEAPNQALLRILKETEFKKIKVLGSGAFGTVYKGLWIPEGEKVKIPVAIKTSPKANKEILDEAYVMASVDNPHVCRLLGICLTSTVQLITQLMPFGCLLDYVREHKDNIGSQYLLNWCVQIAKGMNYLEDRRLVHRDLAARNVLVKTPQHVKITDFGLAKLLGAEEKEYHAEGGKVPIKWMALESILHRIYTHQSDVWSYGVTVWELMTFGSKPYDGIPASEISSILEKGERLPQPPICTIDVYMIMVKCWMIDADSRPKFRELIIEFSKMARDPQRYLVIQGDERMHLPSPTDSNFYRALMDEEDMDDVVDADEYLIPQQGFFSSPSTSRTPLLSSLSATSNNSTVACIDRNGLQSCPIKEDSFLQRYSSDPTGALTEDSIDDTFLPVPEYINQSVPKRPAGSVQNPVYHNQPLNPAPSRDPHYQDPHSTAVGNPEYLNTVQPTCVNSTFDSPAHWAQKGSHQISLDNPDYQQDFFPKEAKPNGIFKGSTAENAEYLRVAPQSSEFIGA

With `C=CC(=O)Nc1cc2c(Nc3ccc(F)c(Cl)c3)ncnc2cc1OCCCN1CCN(C(=O)CCCCCNc2cccc3c2C(=O)N(C2CCC(=O)NC2=O)C3=O)CC1` (stereo not shown) [SIAIS262125, N-(4-((3-chloro-4-fluorophenyl)amino)-7-(3-(4-(6-((2-(2,6-dioxopiperidin-3-yl)-1,3-dioxoisoindolin-4-yl)amino)hexanoyl)piperazin-1-yl)propoxy)quinazolin-6-yl)acrylamide], the IC50 in assay [1] (setting [8]) is 1.3 nM; in assay [3] (WST (CCK8)), 0.3 nM; in assay [3] (setting [8]) it was 0.3 nM; in assay [4] (72 hours, WST), less than 25 nM; in assay [4] (setting [9]), 15 nM; in assay [5] (setting [10]), 79 nM. For the same molecule, the IC50 in assay [6] was found to be 9.6 nM. Further, the “EGFR degradation (EGFR level, western blot)” value (“EGFR degradation” below) in assay [2] is “obvious EGFR degradation efficacy”. Further, in assay [6] (BT474 cells, 72 hours), the “antineoplastic activity (in words)” value was “better antineoplastic activity than the relative EGFR TKIs”.
On to `COc1cc2ncnc(Nc3ccc(F)c(Cl)c3)c2cc1NC(=O)/C=C/CN1CCC(N2CCN(C(=O)CCCCCCNc3cccc4c3C(=O)N(C3CCC(=O)NC3=O)C4=O)CC2)CC1` (stereo not shown) [SIAIS262037, (E)-N-(4-((3-chloro-4-fluorophenyl)amino)-7-methoxyquinazolin-6-yl)-4-(4-(4-(7-((2-(2,6-dioxopiperidin-3-yl)-1,3-dioxoisoindolin-4-yl)amino)heptanoyl)piperazin-1-yl)piperidin-1-yl)but-2-enamide], for which the IC50 was 2.1 nM in assay [1] (WST (CCK8)), 1.6 nM in assay [3] (WST (CCK8)) and 0.9 nM in assay [6]. Also, the “EGFR degradation” value in assay [2] was “obvious EGFR degradation efficacy”. In assay [2], the 50% degradation concentration (DC50) (usually the midpoint of the concentration-degradation curve) was roughly 50 nM.
Take `COc1cc2ncnc(Nc3ccc(F)c(Cl)c3)c2cc1NC(=O)/C=C/CN1CCCCC1` [dacomitinib, reference compound]: the “EGFR degradation” value in assay [7] was “couldn't degrade EGFR”. The IC50 in assay [1] (WST (CCK8)) was 0.4 nM; in assay [3] (WST (CCK8)) it was 0.5 nM; in assay [4] (72 hours, WST) it was 834 nM; in assay [5] (setting [11]) it was 674 nM.
Regarding `COc1cc2ncnc(Nc3ccc(F)c(Cl)c3)c2cc1NC(=O)/C=C/CN1CCC(N2CCN(C(=O)CCCCCSc3cccc4c3CN(C3CCC(=O)NC3=O)C4=O)CC2)CC1` (stereo not shown) [SIAIS262035, (E)-N-(4-((3-chloro-4-fluorophenyl)amino)-7-methoxyquinazolin-6-yl)-4-(4-(4-(6-((2-(2,6-dioxopiperidin-3-yl)-1-oxoisoindolin-4-yl)thio)hexanoyl)piperazin-1-yl)piperidin-1-yl)but-2-enamide], the IC50 amounted to 6.1 nM in assay [1] (WST (CCK8)); 2.2 nM in assay [3] (WST (CCK8)); 514 nM in assay [4] (72 hours, WST); 491 nM in assay [5] (setting [11]); 2.1 nM in assay [6]. In addition, the “EGFR degradation” value in assay [2] was “obvious EGFR degradation efficacy”.
Consider `C=CC(=O)Nc1cc2c(Nc3ccc(F)c(Cl)c3)ncnc2cc1OCCCN1CCN(CCCCCCNc2cccc3c2C(=O)N(C2CCC(=O)NC2=O)C3=O)CC1` (stereo not shown) [SIAIS262182, N-(4-((3-chloro-4-fluorophenyl)amino)-7-(3-(4-(6-((2-(2,6-dioxopiperidin-3-yl)-1,3-dioxoisoindolin-4-yl)amino)hexyl)piperazin-1-yl)propoxy)quinazolin-6-yl)acrylamide], for which the IC50 in assay [1] (setting [8]) is 11.1 nM; in assay [3] (setting [8]), 1.4 nM; in assay [4] (72 hours, WST) it was less than 25 nM; in assay [4] (setting [9]) it was 12 nM; in assay [5] (setting [10]), 192 nM; in assay [6], 5 nM. For the same molecule, the “EGFR degradation” value in assay [2] is listed as “obvious EGFR degradation efficacy”.
With `C=CC(=O)Nc1cc2c(Nc3ccc(F)c(Cl)c3)ncnc2cc1OCCCN1CCC(N2CCN(CCCCCCSc3cccc4c3CN(C3CCC(=O)NC3=O)C4=O)CC2)CC1` (stereo not shown) [SIAIS262180, N-(4-((3-chloro-4-fluorophenyl)amino)-7-(3-(4-(4-(6-((2-(2,6-dioxopiperidin-3-yl)-1-oxoisoindolin-4-yl)thio)hexyl)piperazin-1-yl)piperidin-1-yl)propoxy)quinazolin-6-yl)acrylamide], the IC50 in assay [1] (setting [8]) is 10.2 nM; in assay [3] (setting [8]) it was 4.2 nM; in assay [4] (setting [9]), 24 nM; in assay [5] (setting [10]), 570 nM; in assay [6] it was 4.4 nM. The “EGFR degradation” value in assay [2] is recorded as “obvious EGFR degradation efficacy”.
For the molecule `COc1cc2ncnc(Nc3ccc(F)c(Cl)c3)c2cc1NC(=O)/C=C/CN1CCC(N2CCN(C(=O)CCCCCSc3cccc4c3C(=O)N(C3CCC(=O)NC3=O)C4=O)CC2)CC1` (stereo not shown) [SIAIS262032, (E)-N-(4-((3-chloro-4-fluorophenyl)amino)-7-methoxyquinazolin-6-yl)-4-(4-(4-(6-((2-(2,6-dioxopiperidin-3-yl)-1,3-dioxoisoindolin-4-yl)thio)hexanoyl)piperazin-1-yl)piperidin-1-yl)but-2-enamide], the IC50 in assay [1] (WST (CCK8)) turned out to be 43.5 nM; in assay [3] (WST (CCK8)) it was 3.3 nM; in assay [5] (setting [11]), 438 nM. Also, the “EGFR degradation” value in assay [2] is listed as “obvious EGFR degradation efficacy”. The 50% degradation concentration (DC50) in assay [2] is roughly 50 nM.

The values above are taken from US12564638B2 (SHANGHAITECH UNIVERSITY, priority 2019, dated 2026).
